According to patent publication US20210070748A1, “INHIBITORS OF BRUTONS TYROSINE KINASE” (Pharmacyclics LLC, priority 2015, published 2021):

Key:
Format in all cases: biochemical
EGFR = EGFR (Homo sapiens, UniProt P00533); assay: Inhibition of a panel of kinases, in vitro HotSpot kinase assay: EGFR; settings: D-compounds panel data; 1 μM ATP
Protocol: The degree of inhibition of a panel of kinases is determined using the in vitro HotSpot kinase assay (purified enzymes, ^33P-ATP, an appropriate substrate and 1 μM ATP).

LCK = LCK (Homo sapiens, UniProt P06239); assay: Inhibition of a panel of kinases, in vitro HotSpot kinase assay: LCK; settings: D-compounds panel data; 1 μM ATP; read-out: IC50 LCK
JAK3 = biological target: T1, JAK3 (Homo sapiens, UniProt P52333); assay: Inhibition of a panel of kinases, in vitro HotSpot kinase assay: JAK3; settings: D-compounds panel data; 1 μM ATP; read-out: IC50 JAK3
T1 sequence (P52333 1-1124): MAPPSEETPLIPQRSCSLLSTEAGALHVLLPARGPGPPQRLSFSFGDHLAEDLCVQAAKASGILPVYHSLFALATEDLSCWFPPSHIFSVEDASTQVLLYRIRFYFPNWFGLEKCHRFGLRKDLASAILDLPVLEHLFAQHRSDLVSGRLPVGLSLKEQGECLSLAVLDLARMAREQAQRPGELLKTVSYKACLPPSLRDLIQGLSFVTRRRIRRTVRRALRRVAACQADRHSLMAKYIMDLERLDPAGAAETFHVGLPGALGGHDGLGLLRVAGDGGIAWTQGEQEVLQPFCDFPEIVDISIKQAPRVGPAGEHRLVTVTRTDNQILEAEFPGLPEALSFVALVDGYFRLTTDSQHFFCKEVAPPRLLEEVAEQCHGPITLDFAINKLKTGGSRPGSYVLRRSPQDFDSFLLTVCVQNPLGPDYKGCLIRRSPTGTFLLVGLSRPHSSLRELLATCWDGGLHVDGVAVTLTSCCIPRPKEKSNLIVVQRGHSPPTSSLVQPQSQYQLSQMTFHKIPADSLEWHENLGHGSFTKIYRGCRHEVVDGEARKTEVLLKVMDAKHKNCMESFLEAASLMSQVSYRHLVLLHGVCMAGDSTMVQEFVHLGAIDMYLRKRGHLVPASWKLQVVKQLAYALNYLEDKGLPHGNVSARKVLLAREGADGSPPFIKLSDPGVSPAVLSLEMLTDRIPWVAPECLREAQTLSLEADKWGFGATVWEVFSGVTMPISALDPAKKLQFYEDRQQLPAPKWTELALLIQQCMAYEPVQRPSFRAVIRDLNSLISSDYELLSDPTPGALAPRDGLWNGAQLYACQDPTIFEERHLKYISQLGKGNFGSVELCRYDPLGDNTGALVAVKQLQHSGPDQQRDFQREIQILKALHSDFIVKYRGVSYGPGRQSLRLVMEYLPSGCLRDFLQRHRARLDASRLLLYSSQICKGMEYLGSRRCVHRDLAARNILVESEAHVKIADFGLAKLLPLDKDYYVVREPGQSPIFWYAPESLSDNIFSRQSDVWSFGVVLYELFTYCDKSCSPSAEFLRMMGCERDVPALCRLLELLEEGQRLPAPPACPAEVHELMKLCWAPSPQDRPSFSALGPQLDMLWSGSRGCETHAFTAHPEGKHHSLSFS

Sequence of EGFR (P00533 25-1210): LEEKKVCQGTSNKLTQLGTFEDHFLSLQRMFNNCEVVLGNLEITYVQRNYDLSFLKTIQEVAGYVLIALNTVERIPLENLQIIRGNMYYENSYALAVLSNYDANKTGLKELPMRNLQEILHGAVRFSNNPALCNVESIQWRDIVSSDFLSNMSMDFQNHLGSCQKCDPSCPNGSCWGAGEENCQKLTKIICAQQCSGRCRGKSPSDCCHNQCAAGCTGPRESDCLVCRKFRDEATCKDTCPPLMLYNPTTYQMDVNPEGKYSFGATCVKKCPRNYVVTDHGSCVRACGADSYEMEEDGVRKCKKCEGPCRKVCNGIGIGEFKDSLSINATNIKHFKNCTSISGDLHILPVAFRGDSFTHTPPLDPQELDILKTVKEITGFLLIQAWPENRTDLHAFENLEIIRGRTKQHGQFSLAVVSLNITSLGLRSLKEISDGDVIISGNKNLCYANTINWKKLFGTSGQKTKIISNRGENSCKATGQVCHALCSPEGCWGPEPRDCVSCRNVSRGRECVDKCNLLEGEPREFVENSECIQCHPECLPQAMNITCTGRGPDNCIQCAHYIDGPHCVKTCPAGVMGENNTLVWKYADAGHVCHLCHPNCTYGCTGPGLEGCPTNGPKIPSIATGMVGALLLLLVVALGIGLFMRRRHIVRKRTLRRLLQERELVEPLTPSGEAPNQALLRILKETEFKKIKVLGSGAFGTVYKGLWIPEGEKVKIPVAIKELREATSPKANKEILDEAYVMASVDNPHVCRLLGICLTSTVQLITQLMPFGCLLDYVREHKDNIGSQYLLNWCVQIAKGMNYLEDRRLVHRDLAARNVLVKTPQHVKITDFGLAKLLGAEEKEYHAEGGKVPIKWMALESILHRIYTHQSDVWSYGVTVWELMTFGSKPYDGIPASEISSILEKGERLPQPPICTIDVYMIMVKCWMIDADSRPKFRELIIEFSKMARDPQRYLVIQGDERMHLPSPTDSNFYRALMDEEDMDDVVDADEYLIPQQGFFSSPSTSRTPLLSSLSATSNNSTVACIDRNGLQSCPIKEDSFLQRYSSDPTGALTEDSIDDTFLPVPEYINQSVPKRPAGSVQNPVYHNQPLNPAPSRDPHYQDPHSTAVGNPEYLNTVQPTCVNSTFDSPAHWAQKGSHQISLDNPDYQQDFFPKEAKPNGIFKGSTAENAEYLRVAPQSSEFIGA
Sequence of LCK (P06239 whole entry): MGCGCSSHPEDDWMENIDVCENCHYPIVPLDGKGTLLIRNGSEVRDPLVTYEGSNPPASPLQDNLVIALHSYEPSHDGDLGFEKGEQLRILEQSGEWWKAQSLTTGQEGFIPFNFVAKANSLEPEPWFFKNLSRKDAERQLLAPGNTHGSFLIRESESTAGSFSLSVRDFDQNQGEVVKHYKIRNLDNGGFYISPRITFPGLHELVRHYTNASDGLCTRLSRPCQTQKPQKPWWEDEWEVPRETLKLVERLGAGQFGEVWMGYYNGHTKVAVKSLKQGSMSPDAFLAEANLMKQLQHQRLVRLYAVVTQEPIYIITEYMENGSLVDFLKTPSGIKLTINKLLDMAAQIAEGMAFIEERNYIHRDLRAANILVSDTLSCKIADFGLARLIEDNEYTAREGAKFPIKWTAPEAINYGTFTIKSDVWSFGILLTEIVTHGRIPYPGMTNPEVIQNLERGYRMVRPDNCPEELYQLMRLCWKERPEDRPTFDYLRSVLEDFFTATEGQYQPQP

| IC50 (EGFR) | IC50 (LCK) | IC50 (JAK3) | Structure (SMILES) |
| --- | --- | --- | --- |
| > 10 µM | 1 to 10 µM | > 10 µM | Cn1cc(Nc2nc(N3CC[C@@H](O)[C@H](NC(=O)c4ccc(C5CC5)cc4)C3)cnc2C(N)=O)cn1 (racemic) [Example D-26, (racemic)-trans-5-[3-(4-cyclopropylbenzamido)-4-hydroxypiperidin-1-yl]-3-[(1-methyl-1H-pyrazol-4-yl)amino]pyrazine-2-carboxamide] |
| > 10 µM | 1 to 10 µM | 1 to 10 µM | CN(C)C(=O)N1CC[C@@H]2[C@H]1CCCN2c1cnc(C(N)=O)c(Nc2cnn(C)c2)n1 (racemic) [Example D-50, (racemic)-cis-5-[1-(dimethylcarbamoyl)-octahydro-1H-pyrrolo[3,2-b]pyridin-4-yl]-3-[(1-methyl-1H-pyrazol-4-yl)amino]pyrazine-2-carboxamide] |
| > 10 µM | 0.1 to 1 µM | 1 to 10 µM | Cn1cc(Nc2nc(N3CCC[C@@H]4[C@H]3CCN4C(=O)c3ccccc3)cnc2C(N)=O)cn1 (racemic) [Example D-54, (racemic)-cis-5-{1-benzoyl-octahydro-1H-pyrrolo[3,2-b]pyridin-4-yl}-3-[(1-methyl-1H-pyrazol-4-yl)amino]pyrazine-2-carboxamide] |
| > 10 µM | > 10 µM | > 10 µM | Cn1cc(Nc2nc(N3CCC(NC(=O)c4ccc(C5CC5)cc4)C(O)C3)cnc2C(N)=O)cn1 (single isomer, unassigned) [Example D-28, Trans-5-[4-(4-cyclopropylbenzamido)-3-hydroxypiperidin-1-yl]-3-[(1-methyl-1H-pyrazol-4-yl)amino]pyrazine-2-carboxamide] |
| > 10 µM | > 10 µM | > 10 µM | Cn1cc(Nc2nc(N3CCC(NC(=O)c4ccc(C5CC5)cc4)C(O)C3)cnc2C(N)=O)cn1 (single isomer, unassigned) [Example D-29, Trans-5-[4-(4-cyclopropylbenzamido)-3-hydroxypiperidin-1-yl]-3-[(1-methyl-1H-pyrazol-4-yl)amino]pyrazine-2-carboxamide] |
| 1 to 10 µM | 1 to 10 µM | 1 to 10 µM | C[C@@H]1[C@H](NC(=O)c2ccc(C3CC3)cc2F)CCCN1c1cnc(C(N)=O)c(Nc2cnn(C)c2)n1 [Example D-1, 5-[(2R,3R)-3-(4-cyclopropyl-2-fluorobenzamido)-2-methylpiperidin-1-yl]-3-[(1-methyl-1H-pyrazol-4-yl)amino]pyrazine-2-carboxamide] |
| 0.1 to 1 µM | 0.1 to 1 µM | 0.1 to 1 µM | C[C@@H]1[C@H](N2Cc3cc(Br)ccc3C2=O)CCCN1c1cnc(C(N)=O)c(Nc2cnn(C)c2)n1 [Example D-27, 5-[(2R,3R)-3-(5-bromo-1-oxo-2,3-dihydro-1H-isoindol-2-yl)-2-methylpiperidin-1-yl]-3-[(1-methyl-1H-pyrazol-4-yl)amino]pyrazine-2-carboxamide] |
| 1 to 10 µM | 0.1 to 1 µM | 0.1 to 1 µM | CC(C)n1ccc(C(=O)N[C@@H]2CCCN(c3cnc(C(N)=O)c(Nc4cnn(C)c4)n3)[C@@H]2C)cc1=O [Example D-35, 3-[(1-methyl-1H-pyrazol-4-yl)amino]-5-[(2R,3R)-2-methyl-3-[2-oxo-1-(propan-2-yl)-1,2-dihydropyridine-4-amido]piperidin-1-yl]pyrazine-2-carboxamide] |
| 0.1 to 1 µM | 0.1 to 1 µM | 0.1 to 1 µM | C[C@@H]1[C@H](N2Cc3cc(C4CC4)ccc3C2=O)CCCN1c1cnc(C(N)=O)c(Nc2cnn(C)c2)n1 [Example D-36, 5-[(2R,3R)-3-(5-cyclopropyl-1-oxo-2,3-dihydro-1H-isoindol-2-yl)-2-methylpiperidin-1-yl]-3-[(1-methyl-1H-pyrazol-4-yl)amino]pyrazine-2-carboxamide] |

Continued, compound first:

| Structure (SMILES) | IC50 (EGFR) | IC50 (LCK) | IC50 (JAK3) |
| --- | --- | --- | --- |
| Cn1cc(Nc2nc(N3C[C@H](CO)C[C@H](NC(=O)c4ccc(C5CC5)cc4)C3)cnc2C(N)=O)cn1 (racemic) [Example D-43, (racemic)-cis-5-[3-(4-cyclopropylbenzamido)-5-(hydroxymethyl)piperidin-1-yl]-3-[(1-methyl-1H-pyrazol-4-yl)amino]pyrazine-2-carboxamide] | 1 to 10 µM | 0.1 to 1 µM | 0.1 to 1 µM |
| CN(C)C(=O)N[C@H]1CCCN(c2cnc(C(N)=O)c(Nc3ccc4ncccc4c3)n2)[C@@H]1CO (racemic) [Example D-64, trans 5-[3-[(dimethylcarbamoyl)amino]-2-(hydroxymethyl)piperidin-1-yl]-3-[(quinolin-6-yl)amino]pyrazine-2-carboxamide] | > 10 µM | > 10 µM | > 10 µM |
| CN(C)C(=O)N[C@H]1CCCN(c2cnc(C(N)=O)c(Nc3ccc4ncccc4c3)n2)[C@H]1CO (racemic) [Example D-65, cis 5-[3-[(dimethylcarbamoyl)amino]-2-(hydroxymethyl)piperidin-1-yl]-3-[(quinolin-6-yl)amino]pyrazine-2-carboxamide] | > 10 µM | > 10 µM | > 10 µM |
| Cc1cc(Nc2nc(N3CCC[C@@H](NC(=O)c4ccc(C5CC5)cc4F)C3)cnc2C(N)=O)on1 [Example D-2, 5-[(3R)-3-(4-cyclopropyl-2-fluorobenzamido)piperidin-1-yl]-3-[(3-methyl-1,2-oxazol-5-yl)amino]pyrazine-2-carboxamide] | > 10 µM | > 10 µM | 1 to 10 µM |
| NC(=O)c1ncc(N2CCC[C@@H](NC(=O)c3ccc(C4CC4)cc3F)C2)nc1Nc1cc(-c2ccccc2)ns1 [Example D-3, 5-[(3R)-3-(4-cyclopropyl-2-fluorobenzamido)piperidin-1-yl]-3-[(3-phenyl-1,2-thiazol-5-yl)amino]pyrazine-2-carboxamide] | > 10 µM | > 10 µM | > 10 µM |
| Cc1ncc(Nc2nc(N3CCC[C@@H](NC(=O)c4ccc(C5CC5)cc4F)C3)cnc2C(N)=O)s1 [Example D-4, 5-[(3R)-3-(4-cyclopropyl-2-fluorobenzamido)piperidin-1-yl]-3-[(2-methyl-1,3-thiazol-5-yl)amino]pyrazine-2-carboxamide] | > 10 µM | > 10 µM | 1 to 10 µM |
| C[C@H]1C[C@@H](NC(=O)c2ccc(C3CC3)cc2)CN(c2cnc(C(N)=O)c(Nc3cnn(C)c3)n2)C1 [Example D-30, 5-[(3R,5S)-3-(4-cyclopropylbenzamido)-5-methylpiperidin-1-yl]-3-[(1-methyl-1H-pyrazol-4-yl)amino]pyrazine-2-carboxamide] | > 10 µM | 0.1 to 1 µM | > 10 µM |
| C[C@@H]1C[C@@H](NC(=O)c2ccc(C3CC3)cc2)CN(c2cnc(C(N)=O)c(Nc3cnn(C)c3)n2)C1 [Example D-31, 5-[(3R,5R)-3-(4-cyclopropylbenzamido)-5-methylpiperidin-1-yl]-3-[(1-methyl-1H-pyrazol-4-yl)amino]pyrazine-2-carboxamide] | > 10 µM | 1 to 10 µM | 1 to 10 µM |
| C[C@@H]1C[C@H](NC(=O)c2ccc(C3CC3)cc2)CN(c2cnc(C(N)=O)c(Nc3cnn(C)c3)n2)C1 [Example D-32, 5-[(3S,5R)-3-(4-cyclopropylbenzamido)-5-methylpiperidin-1-yl]-3-[(1-methyl-1H-pyrazol-4-yl)amino]pyrazine-2-carboxamide] | > 10 µM | 1 to 10 µM | > 10 µM |
| C[C@@H]1[C@H](NC(=O)N(C)C)CCCN1c1cnc(C(N)=O)c(Nc2ccc(OC3CCN(C)CC3)cc2)n1 [Example D-33, 5-[(2R,3R)-3-[(dimethylcarbamoyl)amino]-2-methylpiperidin-1-yl]-3-({4-[(1-methylpiperidin-4-yl)oxy]phenyl}amino)pyrazine-2-carboxamide] | 0.1 to 1 µM | 0.01 to 0.1 µM | 1 to 10 µM |
| C[C@H]1C[C@H](NC(=O)c2ccc(C3CC3)cc2)CN(c2cnc(C(N)=O)c(Nc3cnn(C)c3)n2)C1 [Example D-34, 5-[(3S,5S)-3-(4-cyclopropylbenzamido)-5-methylpiperidin-1-yl]-3-[(1-methyl-1H-pyrazol-4-yl)amino]pyrazine-2-carboxamide] | > 10 µM | > 10 µM | > 10 µM |
